Measurements as given in US20130331738A1, “COMPOSITIONS AND METHODS FOR POTENTIATING SONOTHROMBOLYSIS” (Board of Trustees University of Arkansas, priority 2012, published 2013).

System: rabbit blood clots
Experiment: In vitro sonothrombolysis of rabbit blood clots in a Mylar flow chamber infused with serum
Conditions: CPDL 0.001% w/V added to the MB suspension, complete absence of tPA
Experimental: To assess the combined effect of ultrasound in combination with tPA, a tissue permeabilizer, and microbubbles (MBs) on the efficacy of sonothrombolysis, the following experiment was conducted. Sonothrombolysis was performed on rabbit blood clots situated in a Mylar flow chamber (37.0° C.) infused with serum. In addition, tPA was introduced into the flow chamber at several initial concentrations ranging from 0.0 mg/mL to 0.2 mg/mL. At each tPA concentration, the ultrasound delivery parameters were adjusted to maximize the efficacy of sonothrombolysis of the clots. The efficacy of sonothrombolysis was assessed by determining the % clot mass loss per minute within the flow chamber. The ultrasound delivery parameters that were adjusted in this experiment included pulsed ultrasound intensity (0.1-2.0 W/cm2), ultrasound frequency (0.7-4 MHz), and duty factor (0.05-100%).
Once the ultrasound delivery parameters were established for each tPA concentration, uniformly-sized MBs having diameters ranging from about […] were then added to the flow chamber; the concentration and elasticity of the MBs were adjusted while reducing tPA in order to maintain the initial % clot mass loss per minute. […]

O=C1CCCCCCCCCCCCCCO1 [CPDL, cyclopentadecanolide]
increase of efficacy of sonothrombolysis (% clot mass loss per minute): six-fold
